According to ChEMBL document CHEMBL3046224, “Synthesis of novel 2-phenylsulfonylhydrazono-3-(2',3',4',6'-tetra-O-acetyl-beta-d-glucopyranosyl)thiazolidine-4-ones from thiosemicarbazide precursors” (2006):

What was measured:
Type in all cases: functional
Conditions in all cases: read-out: GI
Phomopsis asparagi = assay: Fungicidal activity against Phomopsis asparagi assessed as growth inhibition at 50 ppm relative to control
[1] = tested on: Botryosphaeria berengeriana; assay: Fungicidal activity against Botryosphaeria berengeriana assessed as growth inhibition at 50 ppm relative to control
[2] = tested on: Brassica rapa subsp. oleifera; assay: Herbicidal activity against Brassica rapa subsp. oleifera assessed as growth inhibition at 1.5 kg/ha applied to soil relative to control

Structure (SMILES)	inhibition of growth at 50 ppm (Phomopsis asparagi)	inhibition of growth at 50 ppm [1]	inhibition of growth at 1500 g/ha [2]
CC(=O)OC[C@H]1O[C@@H](NC(=S)NNS(=O)(=O)c2ccc(C)cc2)[C@H](OC(C)=O)[C@@H](OC(C)=O)[C@@H]1OC(C)=O	30%	30%	
CC(=O)OC[C@H]1O[C@@H](N2C(=O)CS/C2=N\NS(=O)(=O)c2ccc(C)cc2)[C@H](OC(C)=O)[C@@H](OC(C)=O)[C@@H]1OC(C)=O	30%	30%	39.8%
CC(=O)O[C@@H]1[C@@H](OC(C)=O)[C@H](OC(C)=O)CO[C@H]1NC(=S)NNS(=O)(=O)c1ccccc1	30%	30%	
